Measured values: ChEMBL document CHEMBL4507318, “Data for DCP probe BAY-985” (2021)

Tests used:
[1] = molecular target: Mitogen-activated protein kinase 7 (Homo sapiens) (UniProt Q13164)
[2] = molecular target: Serine/threonine-protein kinase 17A (Homo sapiens) (UniProt Q9UEE5)
[3] = molecular target: Rhodopsin kinase GRK7 (Homo sapiens) (UniProt Q8WTQ7)
[4] = molecular target: Cyclin-dependent kinase 9 (Homo sapiens) (UniProt P50750)
[5] = molecular target: Mitogen-activated protein kinase 6 (Homo sapiens) (UniProt Q16659)
Chain of Mitogen-activated protein kinase 6 (Homo sapiens) (Q16659 whole entry): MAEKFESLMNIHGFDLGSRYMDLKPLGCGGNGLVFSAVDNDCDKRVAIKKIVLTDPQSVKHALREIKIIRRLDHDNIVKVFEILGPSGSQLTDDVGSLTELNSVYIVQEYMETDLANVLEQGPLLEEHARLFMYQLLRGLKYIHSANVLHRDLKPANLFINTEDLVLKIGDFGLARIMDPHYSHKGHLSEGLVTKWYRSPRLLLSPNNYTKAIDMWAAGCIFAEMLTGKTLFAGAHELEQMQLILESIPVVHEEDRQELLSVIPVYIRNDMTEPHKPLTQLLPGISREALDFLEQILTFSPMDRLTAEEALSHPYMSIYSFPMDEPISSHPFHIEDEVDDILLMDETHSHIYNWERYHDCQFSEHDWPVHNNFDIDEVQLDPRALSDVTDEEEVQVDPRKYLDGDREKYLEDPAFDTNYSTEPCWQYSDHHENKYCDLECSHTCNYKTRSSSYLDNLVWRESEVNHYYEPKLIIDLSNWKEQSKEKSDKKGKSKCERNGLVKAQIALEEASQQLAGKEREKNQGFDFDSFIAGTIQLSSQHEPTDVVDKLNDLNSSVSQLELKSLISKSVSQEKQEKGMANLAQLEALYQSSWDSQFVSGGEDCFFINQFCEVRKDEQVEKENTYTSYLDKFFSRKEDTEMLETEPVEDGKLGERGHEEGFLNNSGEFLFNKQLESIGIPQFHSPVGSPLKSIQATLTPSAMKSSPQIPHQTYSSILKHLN

[6] = molecular target: Serine/threonine-protein kinase mTOR (Homo sapiens) (UniProt P42345)
[7] = molecular target: Histamine H2 receptor (Homo sapiens) (UniProt P25021); conditions: Compound concentration 10.0 uM
Chain of Histamine H2 receptor (Homo sapiens) (P25021 whole entry, canonical isoform): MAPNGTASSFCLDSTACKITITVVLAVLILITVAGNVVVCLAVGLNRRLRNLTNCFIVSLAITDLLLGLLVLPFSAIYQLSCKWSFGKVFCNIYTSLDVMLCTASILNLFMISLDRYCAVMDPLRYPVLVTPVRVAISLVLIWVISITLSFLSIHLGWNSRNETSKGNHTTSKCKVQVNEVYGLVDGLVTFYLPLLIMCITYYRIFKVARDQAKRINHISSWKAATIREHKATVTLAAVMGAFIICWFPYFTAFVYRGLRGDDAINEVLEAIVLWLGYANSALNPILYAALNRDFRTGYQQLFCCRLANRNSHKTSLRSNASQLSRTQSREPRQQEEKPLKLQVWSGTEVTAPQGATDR

[8] = molecular target: Casein kinase I isoform gamma-3 (Homo sapiens) (UniProt Q9Y6M4)
[9] = molecular target: Mitogen-activated protein kinase kinase kinase 12 (Homo sapiens) (UniProt Q12852)
[10] = tested on: Phosphatidylinositol 4,5-bisphosphate 3-kinase catalytic subunit alpha isoform (Homo sapiens), P42336 [H1047L]
[11] = molecular target: SRSF protein kinase 3 (Homo sapiens) (UniProt Q9UPE1)
[12] = molecular target: Serine/threonine-protein kinase BRSK2 (Homo sapiens) (UniProt Q8IWQ3)
Chain of Serine/threonine-protein kinase BRSK2 (Homo sapiens) (Q8IWQ3 whole entry): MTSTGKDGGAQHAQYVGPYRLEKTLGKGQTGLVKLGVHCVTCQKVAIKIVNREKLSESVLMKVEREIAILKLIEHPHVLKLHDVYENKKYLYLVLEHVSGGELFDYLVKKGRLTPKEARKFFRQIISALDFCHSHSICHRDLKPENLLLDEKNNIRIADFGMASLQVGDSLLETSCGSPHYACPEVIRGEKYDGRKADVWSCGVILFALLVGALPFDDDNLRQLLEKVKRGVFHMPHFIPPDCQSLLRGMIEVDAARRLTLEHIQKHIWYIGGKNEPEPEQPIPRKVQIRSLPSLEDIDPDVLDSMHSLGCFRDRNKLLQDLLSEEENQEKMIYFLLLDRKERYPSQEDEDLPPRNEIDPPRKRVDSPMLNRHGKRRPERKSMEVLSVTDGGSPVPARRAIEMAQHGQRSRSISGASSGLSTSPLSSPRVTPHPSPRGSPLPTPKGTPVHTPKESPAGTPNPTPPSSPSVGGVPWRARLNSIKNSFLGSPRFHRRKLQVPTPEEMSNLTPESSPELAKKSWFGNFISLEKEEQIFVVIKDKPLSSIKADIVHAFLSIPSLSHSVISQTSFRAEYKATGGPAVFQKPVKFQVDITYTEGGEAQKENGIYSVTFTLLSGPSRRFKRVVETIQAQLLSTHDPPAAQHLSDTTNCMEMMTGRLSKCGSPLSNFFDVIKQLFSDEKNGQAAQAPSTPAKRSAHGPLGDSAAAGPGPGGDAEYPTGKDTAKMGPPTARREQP

[13] = molecular target: Phosphatidylinositol 3-kinase catalytic subunit type 3 (Homo sapiens) (UniProt Q8NEB9)
[14] = molecular target: Atypical kinase COQ8B, mitochondrial (Homo sapiens) (UniProt Q96D53)
[15] = molecular target: Ephrin type-A receptor 3 (Homo sapiens) (UniProt P29320)
[16] = molecular target: Serine/threonine-protein kinase TAO2 (Homo sapiens) (UniProt Q9UL54)
[17] = molecular target: Serine/threonine-protein kinase STK11 (Homo sapiens) (UniProt Q15831)
[18] = molecular target: 5-hydroxytryptamine receptor 1D (Homo sapiens) (UniProt P28221); conditions: Compound concentration 10.0 uM
[19] = molecular target: Casein kinase I isoform alpha-like (Homo sapiens) (UniProt Q8N752)
Chain of Casein kinase I isoform alpha-like (Homo sapiens) (Q8N752 whole entry, canonical isoform): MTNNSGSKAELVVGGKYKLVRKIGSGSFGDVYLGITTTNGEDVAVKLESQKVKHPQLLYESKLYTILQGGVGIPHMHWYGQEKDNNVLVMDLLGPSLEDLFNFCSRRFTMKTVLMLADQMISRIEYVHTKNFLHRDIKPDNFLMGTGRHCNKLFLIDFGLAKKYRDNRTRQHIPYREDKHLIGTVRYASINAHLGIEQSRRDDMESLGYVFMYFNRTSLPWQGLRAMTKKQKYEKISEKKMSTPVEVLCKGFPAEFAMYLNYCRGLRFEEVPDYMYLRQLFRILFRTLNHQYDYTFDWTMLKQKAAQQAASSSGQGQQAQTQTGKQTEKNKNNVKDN

[20] = tested on: Hepatocyte growth factor receptor (Homo sapiens), P08581 [Y1235D]
[21] = molecular target: Serine/threonine-protein kinase ICK (Homo sapiens) (UniProt Q9UPZ9)
[22] = molecular target: MAP kinase-interacting serine/threonine-protein kinase 1 (Homo sapiens) (UniProt Q9BUB5)
[23] = molecular target: Tyrosine-protein kinase Srms (Homo sapiens) (UniProt Q9H3Y6)
[24] = molecular target: Tyrosine-protein kinase JAK1 (Homo sapiens) (UniProt P23458)
[25] = molecular target: Ephrin type-A receptor 8 (Homo sapiens) (UniProt P29322)
[26] = tested on: Hepatocyte growth factor receptor (Homo sapiens), P08581 [M1250T]
[27] = molecular target: Rho-associated protein kinase 2 (Homo sapiens) (UniProt O75116)
[28] = molecular target: Ribosomal protein S6 kinase alpha-4 (Homo sapiens) (UniProt O75676)
[29] = molecular target: Non-receptor tyrosine-protein kinase TYK2 (Homo sapiens) (UniProt P29597)
[30] = molecular target: Serine/threonine-protein kinase TNNI3K (Homo sapiens) (UniProt Q59H18)
[31] = molecular target: Tyrosine-protein kinase Fgr (Homo sapiens) (UniProt P09769)
Chain of Tyrosine-protein kinase Fgr (Homo sapiens) (P09769 2-529 limits assumed): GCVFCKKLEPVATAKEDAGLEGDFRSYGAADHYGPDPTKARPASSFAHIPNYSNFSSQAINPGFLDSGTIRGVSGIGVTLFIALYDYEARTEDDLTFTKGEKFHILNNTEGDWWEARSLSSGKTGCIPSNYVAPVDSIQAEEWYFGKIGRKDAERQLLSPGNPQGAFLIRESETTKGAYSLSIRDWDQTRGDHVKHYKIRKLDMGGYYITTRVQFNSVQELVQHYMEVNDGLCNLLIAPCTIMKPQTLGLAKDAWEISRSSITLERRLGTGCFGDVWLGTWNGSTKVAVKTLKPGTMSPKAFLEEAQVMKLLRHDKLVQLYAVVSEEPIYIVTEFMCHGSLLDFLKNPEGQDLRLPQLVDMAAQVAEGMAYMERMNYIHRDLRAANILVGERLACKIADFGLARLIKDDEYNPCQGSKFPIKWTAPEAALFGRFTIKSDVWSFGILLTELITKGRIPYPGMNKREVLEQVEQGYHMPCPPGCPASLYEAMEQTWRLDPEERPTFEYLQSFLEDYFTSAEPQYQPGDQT

[32] = molecular target: Mitogen-activated protein kinase kinase kinase 15 (Homo sapiens) (UniProt Q6ZN16)
Chain of Mitogen-activated protein kinase kinase kinase 15 (Homo sapiens) (Q6ZN16 whole entry): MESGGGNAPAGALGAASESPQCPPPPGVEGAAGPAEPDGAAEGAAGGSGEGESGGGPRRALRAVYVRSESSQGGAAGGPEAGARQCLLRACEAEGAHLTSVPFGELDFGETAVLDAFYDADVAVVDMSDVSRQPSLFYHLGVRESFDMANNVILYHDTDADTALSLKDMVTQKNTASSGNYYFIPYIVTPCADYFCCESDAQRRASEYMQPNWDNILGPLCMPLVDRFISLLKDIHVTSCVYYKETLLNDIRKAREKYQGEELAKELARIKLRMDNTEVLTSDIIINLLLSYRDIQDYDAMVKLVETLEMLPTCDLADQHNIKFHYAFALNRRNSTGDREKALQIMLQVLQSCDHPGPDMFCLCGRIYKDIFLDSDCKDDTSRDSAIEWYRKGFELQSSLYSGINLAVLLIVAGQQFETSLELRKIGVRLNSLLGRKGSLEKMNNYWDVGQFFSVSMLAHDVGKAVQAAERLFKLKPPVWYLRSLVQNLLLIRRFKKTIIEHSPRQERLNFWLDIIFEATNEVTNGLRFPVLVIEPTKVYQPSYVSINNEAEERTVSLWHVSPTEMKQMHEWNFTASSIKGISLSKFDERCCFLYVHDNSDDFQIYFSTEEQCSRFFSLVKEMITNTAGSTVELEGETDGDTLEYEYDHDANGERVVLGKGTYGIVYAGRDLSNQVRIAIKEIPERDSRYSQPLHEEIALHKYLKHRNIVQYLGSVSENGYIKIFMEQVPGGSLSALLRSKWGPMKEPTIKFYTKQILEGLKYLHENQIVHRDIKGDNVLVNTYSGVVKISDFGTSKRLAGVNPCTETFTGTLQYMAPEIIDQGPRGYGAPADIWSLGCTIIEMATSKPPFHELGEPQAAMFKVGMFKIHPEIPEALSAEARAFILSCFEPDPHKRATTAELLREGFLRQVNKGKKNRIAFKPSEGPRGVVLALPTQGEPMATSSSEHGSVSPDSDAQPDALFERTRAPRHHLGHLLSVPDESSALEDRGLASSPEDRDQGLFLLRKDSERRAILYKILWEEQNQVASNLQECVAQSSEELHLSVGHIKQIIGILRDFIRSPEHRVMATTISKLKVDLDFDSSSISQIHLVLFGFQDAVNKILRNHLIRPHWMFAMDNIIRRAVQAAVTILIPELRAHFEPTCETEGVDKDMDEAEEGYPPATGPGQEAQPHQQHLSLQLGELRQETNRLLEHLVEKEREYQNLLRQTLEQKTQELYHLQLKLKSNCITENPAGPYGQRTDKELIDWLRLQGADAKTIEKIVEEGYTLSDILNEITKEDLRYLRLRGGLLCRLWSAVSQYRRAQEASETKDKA

[33] = molecular target: Activin receptor type-2B (Homo sapiens) (UniProt Q13705)
Chain of Activin receptor type-2B (Homo sapiens) (Q13705 whole entry): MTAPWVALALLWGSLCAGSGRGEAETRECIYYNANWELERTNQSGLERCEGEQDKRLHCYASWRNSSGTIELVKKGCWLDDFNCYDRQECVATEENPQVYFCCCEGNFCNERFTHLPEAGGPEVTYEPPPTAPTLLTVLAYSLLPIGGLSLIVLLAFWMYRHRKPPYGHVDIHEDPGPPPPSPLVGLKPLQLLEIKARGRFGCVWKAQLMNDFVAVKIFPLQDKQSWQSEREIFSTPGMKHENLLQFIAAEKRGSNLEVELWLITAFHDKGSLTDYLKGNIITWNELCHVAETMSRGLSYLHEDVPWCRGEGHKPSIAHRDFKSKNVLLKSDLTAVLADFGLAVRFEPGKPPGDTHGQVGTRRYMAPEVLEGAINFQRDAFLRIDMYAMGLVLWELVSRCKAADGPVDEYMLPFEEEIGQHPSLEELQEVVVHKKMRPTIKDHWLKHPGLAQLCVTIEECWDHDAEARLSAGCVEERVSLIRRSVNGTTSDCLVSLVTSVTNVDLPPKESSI

[34] = molecular target: Glycogen synthase kinase-3 beta (Homo sapiens) (UniProt P49841)
[35] = molecular target: 5-hydroxytryptamine receptor 2B (Homo sapiens, UniProt P41595); conditions: Compound concentration 10.0 uM
[36] = molecular target: Cyclin-dependent kinase 14 (Homo sapiens) (UniProt O94921)
[37] = molecular target: Serine/threonine-protein kinase PAK 1 (Homo sapiens) (UniProt Q13153)
Chain of Serine/threonine-protein kinase PAK 1 (Homo sapiens) (Q13153 whole entry): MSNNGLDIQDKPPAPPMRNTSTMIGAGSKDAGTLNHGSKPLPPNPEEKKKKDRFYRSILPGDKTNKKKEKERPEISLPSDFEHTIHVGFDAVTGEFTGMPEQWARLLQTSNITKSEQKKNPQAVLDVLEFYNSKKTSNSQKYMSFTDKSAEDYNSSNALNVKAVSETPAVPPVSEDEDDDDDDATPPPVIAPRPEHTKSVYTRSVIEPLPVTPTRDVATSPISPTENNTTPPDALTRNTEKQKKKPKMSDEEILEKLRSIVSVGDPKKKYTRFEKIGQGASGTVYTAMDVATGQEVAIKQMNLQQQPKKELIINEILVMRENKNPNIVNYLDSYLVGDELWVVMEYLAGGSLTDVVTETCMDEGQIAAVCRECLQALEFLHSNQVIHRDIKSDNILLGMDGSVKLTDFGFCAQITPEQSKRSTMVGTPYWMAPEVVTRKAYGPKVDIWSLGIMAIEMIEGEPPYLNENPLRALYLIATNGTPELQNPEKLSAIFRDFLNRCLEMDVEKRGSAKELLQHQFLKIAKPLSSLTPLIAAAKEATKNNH

[38] = molecular target: Dual specificity protein kinase CLK3 (Homo sapiens) (UniProt P49761)
[39] = molecular target: Muscarinic acetylcholine receptor M5 (Homo sapiens) (UniProt P08912); conditions: Compound concentration 10.0 uM
[40] = molecular target: Cyclin-dependent kinase 4 (Homo sapiens) (UniProt P11802)
[41] = molecular target: Tyrosine-protein kinase SYK (Homo sapiens) (UniProt P43405)
[42] = molecular target: SRSF protein kinase 1 (Homo sapiens) (UniProt Q96SB4)
[43] = molecular target: Insulin receptor-related protein (Homo sapiens) (UniProt P14616)
[44] = molecular target: Inhibitor of nuclear factor kappa-B kinase subunit epsilon (Homo sapiens) (UniProt Q14164)
[45] = molecular target: Vascular endothelial growth factor receptor 3 (Homo sapiens) (UniProt P35916)
[46] = molecular target: Hepatocyte growth factor receptor (Homo sapiens) (UniProt P08581)
[47] = Compound concentration 1000.0 nM
[48] = Compound concentration 100.0 nM

CN(C)c1ncnc(-c2ccc3nc(Nc4cc(CN5CCN(C(=O)CC(F)(F)F)CC5)ccn4)[nH]c3c2)c1Cl [BAY-440]
residual activity [1, 47]: 91%
residual activity [2, 47]: 34%
residual activity [3, 47]: 90%
residual activity [4, 47]: 100%
residual activity [5, 47]: 100%
residual activity [6, 47]: 100%
inhibition [7]: 32.6%
residual activity [8, 47]: 100%
residual activity [9, 47]: 64%
residual activity [10, 47]: 61%
residual activity [11, 47]: 100%
residual activity [12, 47]: 100%
residual activity [13, 47]: 100%
residual activity [14, 47]: 90%
residual activity [15, 47]: 63%
residual activity [16, 47]: 80%
residual activity [17, 47]: 99%
inhibition [18]: 19.5%
residual activity [19, 47]: 94%
residual activity [20, 47]: 68%
residual activity [21, 47]: 100%
residual activity [22, 47]: 62%
residual activity [23, 47]: 88%
residual activity [24, 47]: 93%
residual activity [25, 47]: 100%
residual activity [26, 47]: 70%
residual activity [27, 47]: 91%
residual activity [28, 47]: 73%
residual activity [29, 47]: 77%
residual activity [30, 47]: 50%
residual activity [31, 47]: 98%
residual activity [32, 47]: 75%
residual activity [33, 47]: 100%
residual activity [34, 47]: 100%
inhibition [35]: 39%
residual activity [36, 47]: 100%
residual activity [37, 47]: 100%
residual activity [38, 47]: 100%
inhibition [39]: 12.4%
residual activity [40, 47]: 83%
residual activity [41, 47]: 96%
residual activity [42, 47]: 47%
residual activity [43, 47]: 95%
residual activity [44, 47]: 13%
residual activity [45, 47]: 63%
residual activity [46, 47]: 69%

C[C@H](c1ccnc(Nc2nc3ccc(-c4cc(N(C)C)ncn4)cc3[nH]2)c1)N1CCN(C(=O)CC(F)(F)F)CC1 [BAY-985]
residual activity [1, 48]: 100%
residual activity [2, 48]: 40%
residual activity [3, 48]: 89%
residual activity [4, 48]: 100%
residual activity [5, 48]: 86%
residual activity [6, 48]: 75%
inhibition [7]: 3.55%
residual activity [8, 48]: 100%
residual activity [9, 48]: 100%
residual activity [10, 48]: 100%
residual activity [11, 48]: 100%
residual activity [12, 48]: 100%
residual activity [13, 48]: 100%
residual activity [14, 48]: 79%
residual activity [15, 48]: 100%
residual activity [16, 48]: 100%
residual activity [17, 48]: 100%
inhibition [18]: 23.2%
residual activity [19, 48]: 94%
residual activity [20, 48]: 100%
residual activity [21, 48]: 88%
residual activity [22, 48]: 92%
residual activity [23, 48]: 97%
residual activity [24, 48]: 92%
residual activity [25, 48]: 100%
residual activity [26, 48]: 93%
residual activity [27, 48]: 100%
residual activity [28, 48]: 94%
residual activity [29, 48]: 100%
residual activity [30, 48]: 59%
residual activity [31, 48]: 85%
residual activity [32, 48]: 96%
residual activity [33, 48]: 81%
residual activity [34, 48]: 100%
inhibition [35]: 60%
residual activity [36, 48]: 100%
residual activity [37, 48]: 77%
residual activity [38, 48]: 100%
inhibition [39]: 18.7%
residual activity [40, 48]: 100%
residual activity [41, 48]: 31%
residual activity [42, 48]: 85%
residual activity [43, 48]: 100%
residual activity [44, 48]: 9.9%
residual activity [45, 48]: 92%
residual activity [46, 48]: 100%
